Laboratory results taken from ChEMBL document CHEMBL5505969, “Discovery of new piperaquine hybrid analogs linked by triazolopyrimidine and pyrazolopyrimidine scaffolds with antiplasmodial and transmission blocking activities” (Eur J Med Chem, 2024).
Activity calls are given as the source filed them. The calls are words filed in the database; no cut-off is given here.

Assays:
[1] = test system: Plasmodium berghei; experiment: Antiplasmodial activity against GFP-expressing Plasmodium berghei HSP70 infected in CD-1 mouse assessed as inhibition of ookinete formation at 10 uM measured after 22 hrs by giemsa staining based microscopic analysis; format: functional; conditions: read-out: INH
[2] = Selectivity index, ratio of CC50 for human HepG2 cells to IC50 for antiplasmodial activity against sorbitol-synchronized ring stage chloroquine sensitive Plasmodium falciparum 3D7 infected in erythrocytes; format: toxicity, cell-based; conditions: Plasmodium falciparum 3D7 in erythrocytes, read-out: Ratio CC50/IC50
[3] = target: T1, Dihydroorotate dehydrogenase (quinone), mitochondrial (Plasmodium falciparum (isolate 3D7)) (UniProt Q08210); experiment: Inhibition of Plasmodium falciparum DHODH at 100 uM measured over 60 secs by DCIP dye based colorimetric assay relative to control; conditions: time > 60.0 sec
T1 sequence (whole entry): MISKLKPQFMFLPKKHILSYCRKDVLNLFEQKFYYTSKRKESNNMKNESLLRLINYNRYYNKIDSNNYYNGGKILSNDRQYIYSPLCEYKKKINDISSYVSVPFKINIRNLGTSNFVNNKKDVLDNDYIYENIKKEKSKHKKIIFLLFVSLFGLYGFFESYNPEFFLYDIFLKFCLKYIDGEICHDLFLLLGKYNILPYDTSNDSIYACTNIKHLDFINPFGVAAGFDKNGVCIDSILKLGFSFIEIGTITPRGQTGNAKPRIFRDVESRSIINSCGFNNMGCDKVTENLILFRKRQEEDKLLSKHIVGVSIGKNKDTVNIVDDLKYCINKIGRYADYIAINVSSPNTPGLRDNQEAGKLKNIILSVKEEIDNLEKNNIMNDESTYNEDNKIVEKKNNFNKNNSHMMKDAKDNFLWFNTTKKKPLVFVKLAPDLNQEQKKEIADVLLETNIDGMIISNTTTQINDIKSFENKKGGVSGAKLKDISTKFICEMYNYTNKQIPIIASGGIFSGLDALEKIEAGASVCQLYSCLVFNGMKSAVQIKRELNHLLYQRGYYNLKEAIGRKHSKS

[4] = target: T1, Dihydroorotate dehydrogenase (quinone), mitochondrial (Plasmodium falciparum (isolate 3D7)); experiment: Inhibition of Plasmodium falciparum DHODH assessed as residual activity at 100 uM measured over 60 secs by DCIP dye based colorimetric assay relative to control; conditions: time > 60.0 sec
[5] = Cytotoxicity against human HepG2 cells assessed as reduction in cell viability incubated for 72 hrs by MTT assay; format: toxicity, cell-based
[6] = test system: Plasmodium falciparum; experiment: Resistance index, ratio of IC50 for antiplasmodial activity against sorbitol-synchronized ring stage chloroquine resistant Plasmodium falciparum K1 infected in erythrocytes to IC50 for antiplasmodial activity against sorbitol-synchronized ring stage chloroquine sensitive Plasmodium falciparum 3D7 infected in erythrocytes; format: functional
[7] = test system: Plasmodium falciparum; experiment: (§1) Antiplasmodial activity against sorbitol-synchronized ring stage chloroquine resistant Plasmodium falciparum K1 infected in erythrocytes measured after 48 hrs by SYBR green dye based fluorescence analysis; format: functional, organism-based; conditions: K1, Erythrocyte
[8] = test system: Plasmodium falciparum; experiment: Antiplasmodial activity against sorbitol-synchronized ring stage chloroquine sensitive Plasmodium falciparum 3D7 infected in erythrocytes measured after 48 hrs by SYBR green dye based fluorescence analysis; format: functional, organism-based; conditions: 3D7, Erythrocyte
[9] = test system: Plasmodium falciparum; experiment: Antiplasmodial activity against GFP expressing sorbitol-synchronized ring stage laboratory adapted Plasmodium falciparum 3D7HT assessed as reduction in infectivity by measuring inhibition of gametocyte formation at 10 uM treated for 72 hrs followed by replacement with fresh media without compound for 24 hrs and measured on day 4 by giemsa staining based microscopic analysis; format: functional
[10] = test system: Plasmodium falciparum; experiment: (§2) Antiplasmodial activity against sorbitol-synchronized ring stage atovaquone resistant Plasmodium falciparum TM90C6B harboring Y268S mutation in CYTB gene, Y184F mutation in MDR1 gene, N51I/C59R/S108N mutation in DHFR gene and S436F/A437G/A581G mutation in DHPS gene infected in erythrocytes measured after 48 hrs by SYBR green dye based fluorescence analysis; format: functional, organism-based; conditions: Erythrocyte
[11] = test system: Plasmodium falciparum; experiment: Antiplasmodial activity against sorbitol-synchronized ring stage MMV848 resistant Plasmodium falciparum 3D7 infected in erythrocytes measured after 48 hrs by SYBR green dye based fluorescence analysis; format: functional, organism-based; conditions: 3D7, Erythrocyte
[12] = test system: Plasmodium falciparum; experiment: Antiplasmodial activity against Plasmodium falciparum infected in erythrocytes assessed as reduction in parasite growth at 10 uM measured within 24 hrs; format: functional, organism-based; conditions: Erythrocyte
[13] = test system: Plasmodium falciparum; experiment: Antiplasmodial activity against Plasmodium falciparum infected in erythrocytes assessed as induction of parasite death by measuring appearance of multiple pyknotic nuclei at 10 uM measured after 24 to 72 hrs; format: functional, organism-based; conditions: Erythrocyte, time 24-72 hrs
[14] = test system: Plasmodium falciparum; experiment: Potency index, ratio of chloroquine IC50 to test compound IC50 for antiplasmodial activity against sorbitol-synchronized ring stage chloroquine resistant Plasmodium falciparum K1 infected in erythrocytes measured after 48 hrs by SYBR green dye based fluorescence analysis; format: functional, Erythrocyte
[15] = test system: Plasmodium falciparum; experiment: as §1, with “2-(1,1-difluoroethyl)-5-methyl-N-(4-(pentafluoro-l6-sulfaneyl)phenyl)-[1,2,4]triazolo[1,5-a]pyrimidin-7-amine” for “chloroquine”, “Dd2” for “K1”; format: functional, organism-based; conditions: Dd2, Erythrocyte
[16] = Ratio of IC50 for Plasmodium falciparum infected in erythrocytes measured after 24 hrs by SYBR green dye based fluorescence assay to IC50 for Plasmodium falciparum infected in erythrocytes measured after 72 hrs by SYBR green dye based fluorescence assay; format: functional, Erythrocyte
[17] = test system: Plasmodium falciparum; experiment: (§3) Resistance index, ratio of IC50 for antiplasmodial activity against sorbitol-synchronized ring stage chloroquine, mefloquine and pyrimethamine resistant Plasmodium falciparum Dd2 harboring N86F/M74I/ N75E/K75T mutation in MDR1 gene, N51I/C59R/S108N mutation in DHFR gene and S436F/A437G/A613S mutation in DHPS gene infected in erythrocytes to IC50 for antiplasmodial activity against sorbitol-synchronized ring stage chloroquine sensitive Plasmodium falciparum 3D7 infected in erythrocytes; format: functional
[18] = test system: Plasmodium falciparum; experiment: as §2, with “chloroquine, mefloquine and pyrimethamine” for “atovaquone”, “Dd2” for “TM90C6B”, “N86F/M74I/ N75E/[…]” for “Y268S mutation in CYTB gene, Y184F”, “S436F/A437G/A613S” for “S436F/A437G/A581G”; format: functional, organism-based; conditions: Dd2, Erythrocyte
[19] = test system: Plasmodium falciparum; experiment: as §3, with “atovaquone” for “chloroquine, mefloquine and pyrimethamine”, “TM90C6B” for “Dd2”, “Y268S mutation in CYTB gene, Y184F” for “N86F/M74I/ N75E/K75T”, “S436F/A437G/A581G” for “S436F/A437G/A613S”; format: functional
[20] = test system: Plasmodium falciparum; experiment: Resistance index, ratio of IC50 for antiplasmodial activity against sorbitol-synchronized ring stage MMV848 resistant Plasmodium falciparum 3D7 infected in erythrocytes to IC50 for antiplasmodial activity against sorbitol-synchronized ring stage chloroquine sensitive Plasmodium falciparum 3D7 infected in erythrocytes; format: functional
[21] = test system: Plasmodium falciparum; experiment: Resistance index, ratio of IC50 for antiplasmodial activity against sorbitol-synchronized ring stage 2-(1,1-difluoroethyl)-5-methyl-N-(4-(pentafluoro-l6-sulfaneyl)phenyl)-[1,2,4]triazolo[1,5-a]pyrimidin-7-amine resistant Plasmodium falciparum Dd2 infected in erythrocytes to IC50 for antiplasmodial activity against sorbitol-synchronized ring stage chloroquine sensitive Plasmodium falciparum 3D7 infected in erythrocytes; format: functional
[22] = test system: Plasmodium falciparum; experiment: Antiplasmodial activity against Plasmodium falciparum infected in erythrocytes assessed as induction of parasite death by measuring irreversible chromatin condensation with appearance of pyknotic nuclei at 300 nM measured after 24 hrs; format: functional, organism-based; conditions: Erythrocyte
[23] = test system: Plasmodium falciparum; experiment: Potency index, ratio of chloroquine IC50 to test compound IC50 for antiplasmodial activity chloroquine-resistant against Plasmodium falciparum W2 by anti-[…] incorporation assay; format: functional
[24] = target: T2, Dihydroorotate dehydrogenase (quinone), mitochondrial (Plasmodium falciparum (isolate 3D7), UniProt Q08210); experiment: Inhibition of Plasmodium falciparum DHODH
T2 sequence (Q08210 whole entry): T1 sequence (whole entry)

SMILES	Percent inhibition of ookinete formation at 10 µM [1]	selectivity ratio [2]	inhibition [3]	Activity [4]	CC50 at 72 h [5]	Ratio IC50 [6]	IC50 [7]	IC50 [8]	inhibition at 10 µM [9]	further results
Cc1cc(NCCCCNc2ccnc3cc(Cl)ccc23)n2nc(C)nc2n1	0%	> 100	< 50%	92%	> 25000 nM	–	–	–	–	–
CCN(CC)CCCC(C)Nc1ccnc2cc(Cl)ccc12 (centres undefined) [CHLOROQUINE]	–	–	–	–	398000 nM	–	–	–	–	–
Cc1cc(NCCCNc2ccnc3cc(Cl)ccc23)n2nc(C)nc2n1	23%	131	< 50%	97%	110000 nM	0.8	640 nM	840 nM	50%	–
Cc1cc(N2CCN(c3ccnc4cc(Cl)ccc34)CC2)n2nc(C)nc2n1	–	–	< 50%	93%	–	–	–	> 10000 nM	–	–
COc1cc(NC(C)CCCN)c2ncccc2c1 (centres undefined) [PRIMAQUINE]	–	–	–	–	–	–	–	–	86%	–
Cc1cc(NCCCNc2ccnc3cc(Cl)ccc23)n2nc(C(F)(F)F)nc2n1	–	168	< 50%	51.5%	113000 nM	4.5	3000 nM	673 nM	–	–
O=C1C(O)=C([C@H]2CC[C@H](c3ccc(Cl)cc3)CC2)C(=O)c2ccccc21 [ATOVAQUONE]	78%	–	–	–	–	–	–	1 nM	–	IC50 [10]: > 1000 nM
Cc1cc(NCCCCCCCNc2ccnc3cc(Cl)ccc23)n2nc(C)cc2n1	43%	211	< 50%	89.4%	9700 nM	1.5	71 nM	46 nM	66.5%	IC50 [11]: 20 nM; Activity [12]: Active; Activity [13]: Active; IC50 [10]: 40 nM; Ratio IC50 [14]: 3; IC50 [15]: 50 nM; Ratio IC50 [16]: 0.8; Ratio IC50 [17]: 0.8; IC50 [18]: 38 nM; Ratio IC50 [19]: 0.9; Ratio IC50 [20]: 0.4; Ratio IC50 [21]: 1
C[C@H]1[C@H](OC(=O)CCC(=O)O)O[C@@H]2O[C@@]3(C)CC[C@H]4[C@H](C)CC[C@@H]1[C@@]24OO3 [ARTESUNATE]	–	–	–	–	–	–	–	–	–	Activity [22]: Active; Ratio IC50 [16]: 1.04
Cc1cc(Nc2ccc3ccccc3c2)n2nc(C(F)(F)F)nc2n1	–	–	–	–	–	–	–	–	–	Ratio IC50 [23]: 10; IC50 [24]: 700 nM
